Source: BindingDB's records for doi:10.1016/j.bmcl.2019.05.020 (Meiji Pharmaceutical University, 2019)

Biological target: Amyloid-beta precursor protein (Homo sapiens, UniProt P05067)
Assay: Inhibition of human amyloid beta (1 to 40) assessed as reduction in aggregation measured after 24 hrs by ThT fluorescence assay

Amyloid-beta precursor protein, sequence (P05067 whole entry): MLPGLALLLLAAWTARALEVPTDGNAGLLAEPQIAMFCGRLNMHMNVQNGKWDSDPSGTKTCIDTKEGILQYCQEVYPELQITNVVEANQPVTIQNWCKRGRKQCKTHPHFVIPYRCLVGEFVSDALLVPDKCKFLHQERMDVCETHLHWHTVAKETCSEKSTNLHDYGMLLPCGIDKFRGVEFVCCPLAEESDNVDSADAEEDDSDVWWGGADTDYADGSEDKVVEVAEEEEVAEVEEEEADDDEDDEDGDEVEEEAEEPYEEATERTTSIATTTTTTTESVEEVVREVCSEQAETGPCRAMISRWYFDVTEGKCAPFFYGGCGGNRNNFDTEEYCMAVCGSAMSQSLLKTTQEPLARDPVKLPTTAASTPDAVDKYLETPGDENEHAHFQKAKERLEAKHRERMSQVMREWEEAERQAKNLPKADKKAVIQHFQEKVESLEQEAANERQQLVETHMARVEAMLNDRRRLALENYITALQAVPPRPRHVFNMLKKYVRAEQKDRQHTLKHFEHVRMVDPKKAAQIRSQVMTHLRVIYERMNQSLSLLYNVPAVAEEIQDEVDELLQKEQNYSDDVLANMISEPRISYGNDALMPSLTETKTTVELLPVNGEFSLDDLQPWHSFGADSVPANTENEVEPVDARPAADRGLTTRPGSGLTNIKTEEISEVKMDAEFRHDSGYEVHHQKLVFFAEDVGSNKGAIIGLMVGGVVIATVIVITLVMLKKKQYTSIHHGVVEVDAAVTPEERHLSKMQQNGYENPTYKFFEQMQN

Row | SMILES | IC50 [µM]
1 | COc1ccc(-c2cc(=O)c3c(O)cc(O)c(-c4cc(-c5cc(O)c6c(=O)cc(OC)cc-6o5)ccc4OC)c3o2)cc1 [sciadopitisin] | > 50
2 | COc1ccc(-c2cc(O)c3c(=O)cc(O)cc-3o2)cc1-c1c(OC)cc(O)c2c(=O)cc(-c3ccc(O)cc3)oc12 [4',7''-di-O-methyl-amentoflavone] | > 50
3 | COc1ccc(-c2cc(=O)c3c(O)cc(OC)c(-c4cc(-c5cc(O)c6c(=O)cc(OC)cc-6o5)ccc4OC)c3o2)cc1 [7,4',7'',4'''-O-methyl-amentoflavone] | > 50
4 | COc1cc2oc(-c3ccc(OC)c(-c4c(OC)cc(O)c5c(=O)cc(-c6ccc(O)cc6)oc45)c3)cc(O)c-2c(=O)c1 [7-O-methyl-isoginkgetin] | > 50
5 | COc1cc2oc(-c3ccc(O)c(-c4c(O)cc(O)c5c(=O)cc(-c6ccc(O)cc6)oc45)c3)cc(O)c-2c(=O)c1 [sequoiaflavone] | 4.9
6 | COc1cc(O)c2c(=O)cc(-c3ccc(O)cc3)oc2c1-c1cc(-c2cc(O)c3c(=O)cc(O)cc-3o2)ccc1O [sotetsuflavone] | > 50
7 | COc1ccc(-c2cc(=O)c3c(O)cc(OC)c(-c4cc(-c5cc(O)c6c(=O)cc(O)cc-6o5)ccc4OC)c3o2)cc1 [kayaflavone] | > 50
8 | COc1ccc(-c2cc(=O)c3c(O)cc(OC)c(-c4cc(-c5cc(O)c6c(=O)cc(OC)cc-6o5)ccc4O)c3o2)cc1 [heveaflavone] | > 50
9 | COc1ccc(-c2cc(=O)c3c(O)cc(O)c(-c4cc(-c5cc(O)c6c(=O)cc(O)cc-6o5)ccc4O)c3o2)cc1 [4'''-methylamentoflavone] | 4.9
